Assay results: ChEMBL document CHEMBL1201862, “PubChem BioAssay data set” (2004)
Calls of active or inactive are those of the source.

Tests used:
[1] = target: Mitogen-activated protein kinase 10 (Homo sapiens, UniProt P53779); experiment: Dose response biochemical screening assay for inhibitors of c-Jun N-Terminal Kinase 3 (JNK3). [Related pubchem assays: 746 ]
[2] = target: T1, Endoribonuclease toxin MazF (Escherichia coli K-12, UniProt P0AE70); experiment: activation of MazEF endoribonuclease cleavage – biochemical, fluorescence, single-stranded RNA substrate, uHTS hits, dose response (AID 588481); assay type: functional
T1 sequence (P0AE70 whole entry): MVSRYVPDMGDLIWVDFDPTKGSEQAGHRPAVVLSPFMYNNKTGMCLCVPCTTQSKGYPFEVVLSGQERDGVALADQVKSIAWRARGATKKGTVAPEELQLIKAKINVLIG

[3] = target: T2, Heat shock protein HSP 90-alpha (Homo sapiens, UniProt P07900); assay type: functional, organism-based
[4] = target: T3, Heat shock factor protein 1 (Mus musculus, UniProt P38532); experiment: enhancement of HSF1-driven luciferase signal – cell-based, NIH3T3, luminescence, dose retest, confirmation (AID 435004); assay type: functional;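 further: stress induced by proteasome inhibitor MG132 added 30 min after compound; luciferase reporter driven by HSF1 response element in NIH3T3 cells; actives raise luminescence as potentiators of the MG132 stress response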
T3 sequence (P38532 whole entry): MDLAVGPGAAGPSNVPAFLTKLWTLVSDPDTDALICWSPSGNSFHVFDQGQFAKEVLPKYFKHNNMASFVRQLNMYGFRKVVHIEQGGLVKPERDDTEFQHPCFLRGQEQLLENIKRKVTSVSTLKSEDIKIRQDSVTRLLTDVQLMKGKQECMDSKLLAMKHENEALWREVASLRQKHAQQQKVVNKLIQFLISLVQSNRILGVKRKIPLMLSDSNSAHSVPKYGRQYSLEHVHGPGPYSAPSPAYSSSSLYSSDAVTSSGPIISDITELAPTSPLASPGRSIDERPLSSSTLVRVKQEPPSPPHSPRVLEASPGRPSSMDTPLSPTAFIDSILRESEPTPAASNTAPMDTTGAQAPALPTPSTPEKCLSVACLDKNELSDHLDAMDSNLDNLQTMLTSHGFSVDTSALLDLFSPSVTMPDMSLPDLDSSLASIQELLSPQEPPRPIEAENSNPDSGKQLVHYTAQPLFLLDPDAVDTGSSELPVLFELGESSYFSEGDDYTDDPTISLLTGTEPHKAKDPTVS

[5] = target: T4, Caspase-6 (Homo sapiens, UniProt P55212); experiment: inhibition of CASP6 peptide cleavage – biochemical, VEID-R110 fluorescence, cherry-pick, dose response (AID 720632)
T4 sequence (P55212 whole entry): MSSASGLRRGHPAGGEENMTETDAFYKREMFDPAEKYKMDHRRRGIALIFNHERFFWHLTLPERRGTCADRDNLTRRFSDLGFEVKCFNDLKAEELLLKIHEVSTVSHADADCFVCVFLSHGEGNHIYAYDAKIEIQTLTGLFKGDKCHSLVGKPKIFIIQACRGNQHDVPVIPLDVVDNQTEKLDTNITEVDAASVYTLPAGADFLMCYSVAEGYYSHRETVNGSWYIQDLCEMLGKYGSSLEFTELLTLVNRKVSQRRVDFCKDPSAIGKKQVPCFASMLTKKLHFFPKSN

[6] = target: NS3 (Hepatitis C virus, UniProt A3EZJ3); experiment: PubChem AID 2173; design: species or system Hepacivirus hominis
[7] = target: Glucose-6-phosphate 1-dehydrogenase (Homo sapiens, UniProt P11413); experiment: inhibition of Homo sapiens G6PD, dose series – biochemical, fluorescence, selectivity assay for P. falciparum G6PD inhibitor project, dose response (AID 504792); assay type: functional
[8] = target: T1, Endoribonuclease toxin MazF; experiment: substrate-only fluorescence increase artefacts – biochemical, single-stranded RNase substrate, counter-screen for MazEF activator project, dose response (AID 588502); assay type: functional
[9] = target: T2, Heat shock protein HSP 90-alpha; experiment: Luminescence-based dose response biochemical high throughput screening assay for inhibitors of the Heat Shock Protein 90 (HSP90). [Related pubchem assays: 1831 (Summary AID.), 1846 (Confirmation screen.), 1789 (Primary screen.)]
[10] = target: Large T antigen (Simian virus 40, UniProt P03070); assay type: functional, Betapolyomavirus macacae;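 further: Confirmatory-stage PubChem screen for compounds that inhibit SV40 T antigen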
[11] = target: Protein Tat (Human immunodeficiency virus type 1 group M subtype B (isolate HXB2)(HIV-1), UniProt P04608); assay type: functional;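 further: tat binding to TAR RNA read out by fluorescence polarization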
[12] = viability loss in Vero cells – cytotoxicity control for Vif-APOBEC3G degradation inhibitor project, dose response (AID 1117358); assay type: functional; conditions: Vero
[13] = target: Cytochrome P450 2D6 (Homo sapiens, UniProt P10635);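 further: CYP2D6 member of a cytochrome P450 panel assay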
[14] = target: T5, Voltage-gated N-type calcium channel alpha-1B subunit/Amyloid beta A4 precursor protein-binding family A member 1 (Homo sapiens, UniProt Q00975+Q02410); experiment: disruptors of Mint-PDZ/N-type channel peptide interaction – biochemical, HTRF, SAR follow-up (AID 2489); assay type: functional
[15] = target: T5, Voltage-gated N-type calcium channel alpha-1B subunit/Amyloid beta A4 precursor protein-binding family A member 1; experiment: disruptors of Mint-PDZ/N-type channel peptide interaction – biochemical, HTRF, set 2, SAR follow-up (AID 434980); assay type: functional
[16] = cells
[17] = Reduced DLD-1 viability, concentration-response, CellTiter-Glo luminescence (AID 1117352); assay type: functional
[18] = rise of 2N DNA cells, HeLa – IC50, dose response (AID 1117349); assay type: functional, cell-based
[19] = cytotoxicity toward HCT116 cells – cell-based, CellTiter-Glo luminescence, IC50, dose response (AID 1117332); assay type: functional; conditions: HCT-116
[20] = RKO cell viability reduction, dose response, CellTiter-Glo luminescence (AID 1117322); assay type: functional
[21] = CellTiter-Glo luminescence survival assay, SW480 colon tumor line, concentration-response curve, half-maximal inhibitory concentration (AID 1117338); assay type: functional
[22] = rise of 4N DNA cells, HeLa – IC50, dose response (AID 1117351); assay type: functional, cell-based
[23] = cytotoxicity toward HT-29 cells – cell-based, CellTiter-Glo luminescence, IC50, dose response (AID 1117330); assay type: functional
[24] = cytotoxicity toward Colo320 cells – cell-based, CellTiter-Glo luminescence, IC50, dose response (AID 1117334); assay type: functional; conditions: COLO 320

T5 sequence (Q00975 whole entry): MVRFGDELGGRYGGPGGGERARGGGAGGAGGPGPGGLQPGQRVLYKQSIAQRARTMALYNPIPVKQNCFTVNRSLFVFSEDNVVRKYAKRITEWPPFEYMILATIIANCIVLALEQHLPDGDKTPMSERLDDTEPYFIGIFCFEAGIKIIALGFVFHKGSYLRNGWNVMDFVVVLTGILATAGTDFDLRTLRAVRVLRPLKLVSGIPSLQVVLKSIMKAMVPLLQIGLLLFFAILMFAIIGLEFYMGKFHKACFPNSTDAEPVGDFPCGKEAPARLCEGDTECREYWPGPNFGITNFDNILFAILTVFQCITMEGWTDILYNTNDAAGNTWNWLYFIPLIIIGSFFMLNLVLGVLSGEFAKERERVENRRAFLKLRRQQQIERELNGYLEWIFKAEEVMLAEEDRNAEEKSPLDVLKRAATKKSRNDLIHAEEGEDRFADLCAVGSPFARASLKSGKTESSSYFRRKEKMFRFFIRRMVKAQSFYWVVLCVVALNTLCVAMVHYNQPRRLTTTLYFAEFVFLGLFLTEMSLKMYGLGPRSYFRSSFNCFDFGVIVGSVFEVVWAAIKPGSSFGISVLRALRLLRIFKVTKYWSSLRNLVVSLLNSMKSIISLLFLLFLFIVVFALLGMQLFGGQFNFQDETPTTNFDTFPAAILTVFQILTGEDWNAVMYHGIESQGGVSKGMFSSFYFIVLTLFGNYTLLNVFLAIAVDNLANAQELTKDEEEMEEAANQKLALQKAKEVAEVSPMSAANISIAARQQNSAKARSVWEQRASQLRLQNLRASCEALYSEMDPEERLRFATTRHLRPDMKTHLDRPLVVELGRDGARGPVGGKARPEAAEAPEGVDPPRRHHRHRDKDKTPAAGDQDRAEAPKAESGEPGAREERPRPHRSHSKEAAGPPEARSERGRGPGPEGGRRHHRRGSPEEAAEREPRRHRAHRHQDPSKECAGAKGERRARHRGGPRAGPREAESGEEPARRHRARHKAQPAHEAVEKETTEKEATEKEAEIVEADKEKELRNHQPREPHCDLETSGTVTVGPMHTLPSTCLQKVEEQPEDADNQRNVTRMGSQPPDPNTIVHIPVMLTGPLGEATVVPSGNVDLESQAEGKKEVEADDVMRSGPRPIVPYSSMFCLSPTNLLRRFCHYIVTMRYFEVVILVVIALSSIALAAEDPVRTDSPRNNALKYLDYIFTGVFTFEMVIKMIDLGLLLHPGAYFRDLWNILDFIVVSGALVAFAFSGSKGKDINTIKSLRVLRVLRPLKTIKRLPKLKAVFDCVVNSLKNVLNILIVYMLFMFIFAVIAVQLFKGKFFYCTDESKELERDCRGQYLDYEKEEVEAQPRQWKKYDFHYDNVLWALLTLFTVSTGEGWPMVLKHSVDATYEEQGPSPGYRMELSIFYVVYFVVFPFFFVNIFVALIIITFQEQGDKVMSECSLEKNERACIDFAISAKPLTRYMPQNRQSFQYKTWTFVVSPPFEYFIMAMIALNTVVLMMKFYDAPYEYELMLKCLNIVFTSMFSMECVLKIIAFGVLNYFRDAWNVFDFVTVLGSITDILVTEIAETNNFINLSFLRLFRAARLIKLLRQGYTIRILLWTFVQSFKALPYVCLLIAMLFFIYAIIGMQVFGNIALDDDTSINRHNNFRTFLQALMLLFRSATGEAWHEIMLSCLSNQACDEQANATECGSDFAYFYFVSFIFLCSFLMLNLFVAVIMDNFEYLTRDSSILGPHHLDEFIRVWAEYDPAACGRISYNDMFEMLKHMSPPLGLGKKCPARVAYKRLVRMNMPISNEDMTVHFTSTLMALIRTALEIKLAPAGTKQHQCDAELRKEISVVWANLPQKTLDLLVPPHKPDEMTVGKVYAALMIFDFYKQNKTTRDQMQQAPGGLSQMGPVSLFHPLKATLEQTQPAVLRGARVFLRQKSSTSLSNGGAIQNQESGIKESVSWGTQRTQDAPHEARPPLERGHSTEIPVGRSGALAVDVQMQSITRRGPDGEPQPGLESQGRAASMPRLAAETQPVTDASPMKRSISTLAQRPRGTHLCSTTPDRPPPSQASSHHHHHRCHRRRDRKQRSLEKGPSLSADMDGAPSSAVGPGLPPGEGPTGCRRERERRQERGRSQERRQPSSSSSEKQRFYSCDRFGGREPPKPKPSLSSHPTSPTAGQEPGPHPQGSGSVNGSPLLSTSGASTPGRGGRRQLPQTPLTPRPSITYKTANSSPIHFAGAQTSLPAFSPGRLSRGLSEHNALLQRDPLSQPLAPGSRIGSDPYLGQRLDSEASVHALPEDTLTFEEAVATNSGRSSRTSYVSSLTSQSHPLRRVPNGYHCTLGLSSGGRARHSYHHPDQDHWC
T5 sequence (Q02410 whole entry): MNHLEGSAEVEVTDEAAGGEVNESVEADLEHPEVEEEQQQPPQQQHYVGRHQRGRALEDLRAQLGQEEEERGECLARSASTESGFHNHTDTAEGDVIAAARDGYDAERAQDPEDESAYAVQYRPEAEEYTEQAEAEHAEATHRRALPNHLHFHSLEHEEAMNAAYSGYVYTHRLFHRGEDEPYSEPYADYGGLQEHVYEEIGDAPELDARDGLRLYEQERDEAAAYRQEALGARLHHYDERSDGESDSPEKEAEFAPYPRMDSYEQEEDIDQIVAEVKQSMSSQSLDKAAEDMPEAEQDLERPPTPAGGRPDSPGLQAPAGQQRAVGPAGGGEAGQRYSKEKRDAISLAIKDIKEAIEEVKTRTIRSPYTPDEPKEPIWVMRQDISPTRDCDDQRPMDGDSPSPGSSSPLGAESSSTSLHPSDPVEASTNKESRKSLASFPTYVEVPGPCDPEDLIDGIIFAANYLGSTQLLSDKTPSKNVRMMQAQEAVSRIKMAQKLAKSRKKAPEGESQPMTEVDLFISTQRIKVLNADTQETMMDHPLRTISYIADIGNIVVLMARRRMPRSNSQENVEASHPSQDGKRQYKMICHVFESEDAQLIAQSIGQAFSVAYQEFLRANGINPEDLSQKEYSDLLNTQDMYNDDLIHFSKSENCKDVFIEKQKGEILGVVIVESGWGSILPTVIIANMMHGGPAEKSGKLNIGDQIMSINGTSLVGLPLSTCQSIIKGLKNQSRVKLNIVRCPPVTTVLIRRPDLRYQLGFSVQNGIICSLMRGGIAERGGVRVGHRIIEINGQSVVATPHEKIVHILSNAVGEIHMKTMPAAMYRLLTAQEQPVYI
Cytochrome P450 2D6, sequence (P10635 whole entry): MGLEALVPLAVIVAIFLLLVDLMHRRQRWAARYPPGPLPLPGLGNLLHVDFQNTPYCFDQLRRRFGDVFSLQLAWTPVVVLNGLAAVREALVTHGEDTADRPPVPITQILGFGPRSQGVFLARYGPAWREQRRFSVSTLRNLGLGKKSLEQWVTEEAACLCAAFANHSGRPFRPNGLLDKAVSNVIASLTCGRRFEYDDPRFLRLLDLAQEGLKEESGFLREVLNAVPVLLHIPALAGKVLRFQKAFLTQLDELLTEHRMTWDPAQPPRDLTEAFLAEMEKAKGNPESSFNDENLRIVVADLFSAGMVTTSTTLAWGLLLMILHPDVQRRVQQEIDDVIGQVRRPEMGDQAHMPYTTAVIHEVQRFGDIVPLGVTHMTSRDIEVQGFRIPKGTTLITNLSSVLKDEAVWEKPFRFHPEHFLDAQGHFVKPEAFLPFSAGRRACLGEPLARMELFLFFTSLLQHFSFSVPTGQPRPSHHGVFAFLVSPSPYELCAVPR
Large T antigen, sequence (P03070 whole entry): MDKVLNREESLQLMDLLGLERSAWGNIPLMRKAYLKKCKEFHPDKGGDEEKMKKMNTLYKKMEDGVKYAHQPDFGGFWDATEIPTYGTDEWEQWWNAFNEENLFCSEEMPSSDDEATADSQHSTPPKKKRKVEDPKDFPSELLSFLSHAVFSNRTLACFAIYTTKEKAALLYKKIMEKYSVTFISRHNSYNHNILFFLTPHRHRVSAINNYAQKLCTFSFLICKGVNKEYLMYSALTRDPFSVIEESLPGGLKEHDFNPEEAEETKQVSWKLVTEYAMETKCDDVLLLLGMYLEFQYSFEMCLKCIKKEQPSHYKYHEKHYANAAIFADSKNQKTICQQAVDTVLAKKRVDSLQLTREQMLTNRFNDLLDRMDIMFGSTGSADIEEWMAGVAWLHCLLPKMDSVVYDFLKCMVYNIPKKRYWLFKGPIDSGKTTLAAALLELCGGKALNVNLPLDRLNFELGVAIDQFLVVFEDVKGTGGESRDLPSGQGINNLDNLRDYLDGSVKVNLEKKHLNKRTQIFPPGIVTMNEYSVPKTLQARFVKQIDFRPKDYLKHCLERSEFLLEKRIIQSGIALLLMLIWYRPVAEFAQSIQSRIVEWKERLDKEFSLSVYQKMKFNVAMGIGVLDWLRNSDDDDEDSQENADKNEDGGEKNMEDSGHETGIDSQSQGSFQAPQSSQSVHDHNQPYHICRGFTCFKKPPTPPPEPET
Mitogen-activated protein kinase 10, sequence (P53779 whole entry): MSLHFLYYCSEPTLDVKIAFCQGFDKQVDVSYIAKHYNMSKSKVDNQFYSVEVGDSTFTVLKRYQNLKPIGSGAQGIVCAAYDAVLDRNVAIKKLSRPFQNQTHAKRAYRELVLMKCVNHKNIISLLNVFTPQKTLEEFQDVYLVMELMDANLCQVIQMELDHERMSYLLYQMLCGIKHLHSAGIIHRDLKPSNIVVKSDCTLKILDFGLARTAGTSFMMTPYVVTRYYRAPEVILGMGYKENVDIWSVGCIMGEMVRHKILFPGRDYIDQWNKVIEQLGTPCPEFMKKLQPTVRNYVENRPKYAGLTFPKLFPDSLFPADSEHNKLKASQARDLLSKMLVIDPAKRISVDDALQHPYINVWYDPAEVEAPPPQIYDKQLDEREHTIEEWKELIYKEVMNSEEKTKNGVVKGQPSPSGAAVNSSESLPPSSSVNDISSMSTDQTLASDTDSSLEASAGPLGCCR
Protein Tat, sequence (P04608 whole entry): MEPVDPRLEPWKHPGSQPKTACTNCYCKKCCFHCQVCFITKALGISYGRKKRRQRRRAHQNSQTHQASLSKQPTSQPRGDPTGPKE

For `Cc1ccc2c(C)nc(NC3=NCN(Cc4ccccc4)CN3)nc2c1`, the IC50 [1] was > 93.1 µM (not active).
For `CC1=CN2C(=N)/C(=C/c3ccc([N+](=O)[O-])o3)C(=O)N=C2S1`, the EC50 [2] was > 99 µM (inactive), the AC50 [3] was 2.57 µM (active) and the EC50 [4] was 30.1 µM (inconclusive). For the same compound, the AC50 [5] was 5.85 µM (active), the IC50 [6] was 9.08 µM (active) and the IC50 [7] was > 80 µM (inactive). For the same compound, the EC50 [8] was 23.8 µM (inactive).
With `O=S(=O)(Cc1ccccc1)N(O)c1ccccc1` the IC50 [9] was 0.913 µM (active).
With `CCN(C(=O)CN1CCN(c2ccc(O)cc2)CC1)c1c(N)n(Cc2ccccc2)c(=O)[nH]c1=O` the IC50 [10] was 7.74 µM (active), the IC50 [11] was 68.5 µM (inconclusive) and the CC50 [12] was > 40 µM (active).
In the case of `CCC(C)N1C(=O)S/C(=C/c2ccc(Sc3nc4ccccc4[nH]3)o2)C1=O` (configuration not stated), the AC50 [13] is reported as 3.98 µM (inconclusive) and the CC50 [12] is reported as 28.7 µM (active).
With `CC12C=CC(C)(O1)C1C(=O)N(c3ccc4c(c3)OCO4)C(=O)C12` (configuration not stated) the IC50 [14] was > 56.8 µM (inactive) and the IC50 [15] was > 56.8 µM (inactive).
With `O=C(NCCc1cccc(Cl)c1)c1cc(-c2ccco2)nc2ccccc12` the IC50 [14] was > 56.8 µM (inactive) and the IC50 [15] was > 56.8 µM (inactive).
For `Nc1nnnn1/N=C/c1ccc(O)cc1`, the IC50 [16] was 2.58 µM (active).
With `CC(C)(C)[C@H]1CC[C@H](CC2=C(O)C(=O)c3ccccc3C2=O)CC1` [BUPARVAQUONE] the IC50 [17] was 0.218 µM (active), the IC50 [18] was > 10 µM (inactive) and the IC50 [19] was 0.227 µM (active). The IC50 [20] was 0.133 µM (active), the IC50 [21] was 0.205 µM (active) and the IC50 [22] was > 10 µM (inactive). The IC50 [23] was 3.39 µM (active) and the IC50 [24] was 0.255 µM (active).
